Reference: US4186136A, “Novel benzothienyl amino (propyl and butyl) ketones, a method of preparation thereof and their application to therapeutics” (priority 1975, dated 1980)
≈ marks a conversion by molar mass, not a printed value. Structures can show the parent of a compound that is named as a salt.

Legend:
[1] = test system: mouse; assay: Acute toxicity, oral, mouse (LD 50, Miller and Tainter); assay type: in vivo; conditions: death rate checked for seven days, 10080 min
Procedure: (§1) The acute toxicity of the compounds of formula (I) were evaluated orally (esophagean probe) on a mouse deprived of food 18 hours before the beginning of the test. The products were placed in suspension in a solution of dilute carboxymethyl cellulose. Calculation of the 50 lethal dose (LD 50) was effected according to the method of Miller and Tainter (Miller L. C., Tainter M. L., Proc. Soc. Exptl. Biol. Med. 1944, 57, 261-264).
(§2) The death rate was checked for seven days following the treatment.
(§3) Table III gives the 50% lethal doses (LD 50) in milligrammes per kilogramme body weight.

[2] = test system: human blood-plaques (aggregation with adrenaline); assay: Inhibition of blood-plaque aggregation induced by adrenaline; assay type: cell-based; conditions: hydrochloride
Source text: (§4) The blood plaques used for these studies were human blood-plaques introduced into the test in the form of blood-plaque rich plasmas (B.P.R.P.).
(§5) These latter were obtained as water-repellent material by slow centrifugation from human blood samples.
(§6) The study of blood-plaque aggregation was made by means of an aggregate-meter with continuous agitation and graphic recording according to the conventional method. (PROST R. S., SOUVERAIN C. H., DOUMENC J., Etude de l'agregation plaquettaire a l'aide de l'agregametre de MUSTARD-Coagulation, 1971, 4, 2, 145-151).
(§7) The agents employed for inducing aggregation were diphosphoric adenosine acid (D.P.A.), 1-(3',4'-di-hydroxyphenyl)-2-methylamino ethanol (adrenaline) and collagene. All these reactants were prepared from mother solutions diluted in a Michaelis' buffer. Their concentration in the test may vary according to the affinity of the blood-plaques.
(§8) An optimum concentration is thus sought by successive tests on the same B.P.R.P.
(§9) The inhibitory activity on the aggregation was evaluated by addition of the product under study to the B.P.R.P. before introduction of the aggregating agent.
(§10) The concentrations of compounds of formula I (X) in the B.P.R.P. are: C (X)=2.5×10^-5 g/ml for aggregation with D.P.A. and adrenaline, and C (X)=2×10^-5 g/ml for collagene.
(§11) The reference product (R) is 2,6-bis (diethanolamino)-4,8-dipiperidinopyrimido[5,4-d]pyramidine (known under the trademark "Dipyridamole") used in the concentration C (R)=5×10^-4 g/ml for aggregation with D.P.A. and adrenaline and C (R)=2×10^-4 g/ml for aggregation with collagene.
(§12) The following table IV indicates the activity of some compounds of formula I: a (X) the activity of the reference product: a (R) and the different values of the ratio: [formula]

[3] = test system: human blood-plaques (aggregation with collagene); assay: Inhibition of blood-plaque aggregation induced by collagene; assay type: cell-based; conditions: for Ratio of a (X) to a (R), COLLAGENE (head drawn): X 2×10^-5 g/ml, R 2×10^-4 g/ml
Source text: as §4, §5, §6, §7, §8, §9, §10, §11, §12

[4] = test system: phenylparaquinone (P.P.Q.) painful syndrome in a mouse; assay: Analgesic and anti-inflammatory activity, phenylparaquinone (P.P.Q.) painful syndrome; assay type: in vivo; conditions: for Analgesic and anti-inflammatory activity, percentage activity a(X): 50 mg/kg digestively, crises between 10 and 15 minutes; for a(X) / a(R), analgesic and anti-inflammatory activity: X 50 mg/kg, R (Galfenine) 25 mg/kg
Procedure: The intraperitoneal injection of phenylparaquinone (P.P.Q.) in a mouse causes the appearance of a painful syndrome appearing within 5 minutes of the injection and disappearing after about 30 minutes (SIEGMUND E. A., CADMUS A., LU G., J. Pharmacol. Exp. Therap. 1957, 119, 453). This painful syndrome manifests itself in the animal by a series of characteristic crises, more or less close together and fleeting, during which we can note a twisting or stretching of the body, a hollowing of the sides and a stretching of the hind legs.
It is therefore possible to note the number of crises in a given interval of time.
The preventive administration of analgesic or anti-inflammatory substances prevents the appearance of crises or reduces the frequency thereof.
The reference substance (R) used in the tests was the ester of N-(7-chloro-4 quinolyl) anthranilic acid and 2,3-dihydroxy n.propanol (known under the trademark Galfenine).
It was administered orally with a dose of 25 mg/kg.
The compounds of formula I (X) were administered digestively with a dose of 50 mg/kg.
The interval of time (t) which was chosen to evaluate the analgesic activity was between 10 and 15 minutes which is the period of maximum frequency of the crises. This activity was expressed in the following way:
n: number of crises observed in the control mice;
n': number of crises observed in mice previously treated with the reference substance (R);
n": number of crises observed in mice having received the substance (X).
The percentage activity of R is equal to [formula]
The percentage activity of X is equal to [formula]
The activity of X in relation to that of R is estimated by the ratio [formula]
For example: a compound X for which [formula] is 0.5 has an activity equal to half that of the reference product.

[5] = test system: rat's isolated duodenum; assay: Spasmolytic activity on isolated duodenum contracted by barium chloride (Magnus); conditions: for ED 50 (R) / ED 50 (X): relative to papaverine hydrochloride
Procedure: The spasmolytic activity was studied on a rat's isolated duodenum maintained in a survival medium of an aerated Tyrode solution heated to 38° C. according to the technique of Magnus (Magnus R.-Archivs ges. Physiol., 1905, 180, 1-71).
The contracting agent used was barium chloride, the reference antogonist agent being papaverine hydrochloride (R). The average activity of the compounds of formula I (X) in comparison with that of the reference agent was expressed by calculating the ratio of the 50 efficient doses (ED 50) determined graphically on logarithmic paper: [formula]
For example: a substance having a relative activity expressed by the FIG. 2 presents an activity equal to twice that of papaverine hydrochloride.

[6] = test system: isolated heart of a gumea-pig; assay: Vaso-dilatatory activity, coronary flow of isolated perfused heart
Procedure: The coronary flow is recorded, by means of an electronic device fitted with a Fleish totaliser, before and after addition of the substance X under study (concentration: 1×10^-5 g/ml), the reference product (R) being 2,6-bis (diethanolamino) 4,8-dipiperidinopyrimido[5,4-d]pyrimidine (known under the trademark "Dipyridamole") used at a concentration of 1×10^-5 g/ml.
The percentage flow increase P was calculated at the climax of the activity of X or R.

[7] = test system: human blood-plaques (aggregation with D.P.A.); assay: Inhibition of blood-plaque aggregation induced by D.P.A.; assay type: cell-based
Source text: as §4, §5, §6, §7, §8, §9, §10, §11, §12

[8] = Acute toxicity, oral, mouse (LD 50, Miller and Tainter); assay type: in vivo; conditions: in vivo, po, death rate checked for seven days, read-out: 50% lethal dose (LD 50) (converted)
Procedure: as §1, §2, §3

[9] = test system: human blood-plaques; assay: Blood-plaque aggregation inhibition (all inducers, overall statement); assay type: cell-based; conditions: compared with reference product, taking the ratio into account
Source text: as §4, §5, §6, §7, §8, §9
The concentrations of compounds of formula I (X) in the B.P.R.P. are: C (X)=2.5×10^-5 g/ml for aggregation with D.P.A. and adrenaline, and C (X)=2×10^-5 g/ml for collagene. […]

For `O=C(CCCN1CCOCC1)c1cc2ccccc2s1` [Compound 2, 1-(benzothien-2'-yl)-4-N-morpholino butanone hydrochloride], the “50% lethal dose (LD 50)” value ([1]; hydrochloride) was 1 500 mg/kg/p.o, the “Inhibitory activity of the blood-plaque aggregation, ADRENALINE, a (X)” value ([2]; C (X)=2.5×10^-5 g/ml) was 15% and the “Ratio of a (X) to a (R), ADRENALINE (head drawn)” value ([2]; adrenaline, X 2.5×10^-5 g/ml, R 5×10^-4 g/ml) was 1.65×10^-1. For the same compound, the “Inhibitory activity of the blood-plaque aggregation, COLLAGENE, a (X)” value ([3]; C (X)=2×10^-5 g/ml, hydrochloride) was 12%, the “Ratio of a (X) to a (R), COLLAGENE (head drawn)” value ([3]; hydrochloride) was 3.3×10^-1 and the “Analgesic and anti-inflammatory activity, percentage activity a(X)” value ([4]; hydrochloride) was 38%. The “a(X) / a(R), analgesic and anti-inflammatory activity” value ([4]; hydrochloride) was 5 × 10^-1.
For `CCN(CC)CCCC(=O)c1csc2ccccc12` [Compound 10], the “50% lethal dose (LD 50)” value [1] was 1 100 mg/kg/p.o, the “ED 50 (R) / ED 50 (X)” value [5] was 1.05 and the activation at 10 µg/mL ([6]; 1×10^-5 g/ml, coronary flow at climax of activity, Locke, 37° C., read-out: Percentage flow increase P (X)) was 60%. The “P (X) / P (R)” value ([6]; relative to Dipyridamole, both 1×10^-5 g/ml) was 1.4.
With `O=C(CCCN1CCCCCC1)c1csc2ccccc12` [Compound 16] the “50% lethal dose (LD 50)” value [1] was 1 200 mg/kg/p.o, the “Inhibitory activity of the blood-plaque aggregation, D.P.A., a (X)” value ([7]; C (X)=2.5×10^-5 g/ml) was 47% and the “Ratio of a (X) to a (R), D.P.A. (head drawn)” value ([7]; D.P.A., X 2.5×10^-5 g/ml, R 5×10^-4 g/ml) was 5.5×10^-1. For the same compound, the inhibition at 20 µg/mL ([3]; Homo sapiens, C (X)=2×10^-5 g/ml, read-out: Inhibitory activity of the blood-plaque aggregation, COLLAGENE, a (X)) was 92%, the “Ratio of a (X) to a (R), COLLAGENE (head drawn)” value [3] was 2.5 and the “ED 50 (R) / ED 50 (X)” value [5] was 2.7. For the same compound, the “Analgesic and anti-inflammatory activity, percentage activity a(X)” value [4] was 44% and the “a(X) / a(R), analgesic and anti-inflammatory activity” value [4] was 5.9 × 10^-1.
In the case of `O=C(CCCN1CCOCC1)c1csc2ccccc12` [Compound 17], the LD50 at 168 h [8] was 1000 mg/kg, the IC50 ([5]; Rattus norvegicus, barium chloride contraction, Tyrode, 38° C., read-out: Spasmolytic activity ED 50 (X)) was 2.15 µg/mL (≈ 7.43 µM) and the “ED 50 (R) / ED 50 (X)” value [5] was 3.4. The “Analgesic and anti-inflammatory activity, percentage activity a(X)” value [4] was 55%, the “a(X) / a(R), analgesic and anti-inflammatory activity” value [4] was 1.2 and the “Inhibitory activity on the blood-plaque aggregation (in words)” value [9] was “substantially superior”.
